Experimental data taken from patent US20030161867A1, “Skin-permeable selective cyclooxygenase-2 inhibitor composition” (priority 2001, published 2003).
“And” between values parts separate entries of the source, which are not always exact repeats. Identical values can stand only once.

Legend:
[1] = Skin permeation (skin flux) in Franz diffusion cell; format: in vitro ADME, human; conditions: saturated aqueous solution, 50° C.
[2] = as above; format: in vitro ADME, human; conditions: for Normalized skin flux: normalized to a standard run on each skin lot
Procedure: Suitable receptor fluids can be selected by one of skill in the art, but presently preferred receptor fluids are a 1% polysorbate 80 solution and a 6% polyethylene glycol (20) oleyl ether (oleth-20) solution. The receptor fluid is maintained at a suitable temperature, preferably a temperature approximating living human skin temperature. A receptor fluid temperature of 32° C. has been found suitable. The membrane is oriented so that its internal surface, i.e., the surface opposite the epidermal surface, is placed in contact with the receptor fluid. Air bubbles are removed from the receptor fluid, which is then allowed to equilibrate for 30 minutes with the membrane. A test sample of a composition is placed in contact with the epidermal surface of the membrane, and left in place for a desired period, for example 24 hours. […] The receptor compartment of the Franz diffusion cell was filled with the receptor fluid and the diffusion cell was maintained at 32° C. The membrane was mounted on the receptor compartment, covered and fastened with a clamp. Air bubbles were removed from the receptor fluid, which was allowed to equilibrate for 30 minutes. A test composition was brought into contact with the membrane. […] Each test was conducted in several replicates.

[3] = Drug concentration of saturated solutions; format: physicochemical
Procedure: Saturated solutions of celecoxib were prepared in the following solvents: 70% aqueous ethanol (EtOH), ethanol, PEG-400 and propylene glycol (PG). The solutions were tested for skin permeation properties as described above, using 250 μl drops of each test solution.
Since different lots of skin were used to determine the skin flux of each compound, a standard was run on each skin lot and the data were normalized.
The solutions were tested for skin permeation properties as described above.

[4] = Distribution of drug in epidermis and dermis after Franz cell skin permeation test; format: in vitro ADME, human
Text: As a way of measuring the skin permeation properties of selective COX-2 inhibitory drugs or prodrugs in dermally deliverable pharmaceutical compositions, a Franz diffusion cell was provided utilizing a human cadaver skin membrane and a 1% polysorbate 80 (Tween™ 80) solution as a receptor fluid. Frozen skin was thawed at room temperature and punched with a 20 mm puncher to provide a membrane. The receptor compartment of the Franz diffusion cell was filled with the receptor fluid and the diffusion cell was maintained at 32° C. The membrane was mounted on the receptor compartment, covered and fastened with a clamp. Air bubbles were removed from the receptor fluid, which was allowed to equilibrate for 30 minutes. A test composition was brought into contact with the membrane. The amount of drug which permeated through the membrane in a 24 hour period was determined by HPLC analysis of the receptor fluid. Each test was conducted in several replicates.
Distribution of drug in epidermis and dermis was also determined. Results are shown in Table 6, by comparison with the solution compositions of Examples 1 and 2.

COX-1 = COX-1 (Homo sapiens, UniProt P23219); conditions: in vitro; cited from earlier work
COX-1, sequence (P23219 24-599): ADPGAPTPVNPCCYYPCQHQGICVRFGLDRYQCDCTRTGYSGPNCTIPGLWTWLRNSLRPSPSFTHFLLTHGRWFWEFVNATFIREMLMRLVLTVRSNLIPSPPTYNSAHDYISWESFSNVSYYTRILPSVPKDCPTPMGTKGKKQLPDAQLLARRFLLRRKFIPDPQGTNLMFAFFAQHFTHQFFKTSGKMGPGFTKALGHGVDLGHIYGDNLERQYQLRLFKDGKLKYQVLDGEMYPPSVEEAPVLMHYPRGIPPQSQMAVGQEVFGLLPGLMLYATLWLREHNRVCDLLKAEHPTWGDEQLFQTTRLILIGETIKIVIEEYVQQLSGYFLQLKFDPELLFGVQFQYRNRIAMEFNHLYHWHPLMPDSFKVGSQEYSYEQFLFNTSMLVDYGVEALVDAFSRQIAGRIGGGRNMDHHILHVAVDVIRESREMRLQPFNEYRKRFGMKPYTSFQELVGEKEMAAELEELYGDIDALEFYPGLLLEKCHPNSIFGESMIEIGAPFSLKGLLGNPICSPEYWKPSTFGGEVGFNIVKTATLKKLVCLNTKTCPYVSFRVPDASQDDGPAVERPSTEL

COX-2 = target: T1, COX-2 (Homo sapiens, UniProt P35354); conditions: in vitro; cited from earlier work
T1 sequence (P35354 18-604): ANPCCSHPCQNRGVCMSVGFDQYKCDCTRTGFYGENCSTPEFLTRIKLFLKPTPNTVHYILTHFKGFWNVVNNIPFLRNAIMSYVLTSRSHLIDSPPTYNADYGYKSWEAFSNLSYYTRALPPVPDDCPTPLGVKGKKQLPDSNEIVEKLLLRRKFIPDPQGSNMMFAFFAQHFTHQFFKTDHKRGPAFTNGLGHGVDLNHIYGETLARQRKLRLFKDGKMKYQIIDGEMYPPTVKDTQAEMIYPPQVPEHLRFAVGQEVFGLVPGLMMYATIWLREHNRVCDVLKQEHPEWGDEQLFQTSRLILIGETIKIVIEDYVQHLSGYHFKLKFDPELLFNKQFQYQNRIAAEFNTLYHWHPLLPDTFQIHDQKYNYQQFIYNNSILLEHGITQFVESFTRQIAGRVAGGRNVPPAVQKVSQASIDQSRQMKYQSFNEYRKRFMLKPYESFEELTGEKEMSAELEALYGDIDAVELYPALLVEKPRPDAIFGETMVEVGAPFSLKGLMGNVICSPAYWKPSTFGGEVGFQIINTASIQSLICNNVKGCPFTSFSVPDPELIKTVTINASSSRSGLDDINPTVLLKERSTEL

[5] = 5% oleyl alcohol and 3% thymol in 70% aqueous ethanol, versus skin flux data in Table 2
[6] = Celecoxib + parecoxib Na composition: saturated celecoxib in 67% aqueous ethanol containing 5% parecoxib sodium
[7] = gel, 1% drug (10 mg/ml) in 70% aqueous ethanol with 3% Klucel, 50 mg applied, non-occlusive
[8] = saturated aqueous solution, 32° C.
[9] = saturated solution in 70% aqueous ethanol containing 5% oleyl alcohol and 3% thymol, 250 μl
[10] = saturated solution in 70% aqueous ethanol, 250 μl, occlusive, 24 hour period, 32° C.
[11] = saturated solution in 70% aqueous ethanol, skin donor 3
[12] = saturated solution in 70% aqueous ethanol, skin donor 4
[13] = saturated solution in 70% aqueous ethanol
[14] = saturated solution in PEG-400, 250 μl, 24 hour period
[15] = saturated solution in ethanol (EtOH), 250 μl, 24 hour period
[16] = saturated solution in propylene glycol (PG), 250 μl, 24 hour period
[17] = with 5% parecoxib sodium in 67% aqueous ethanol, versus Table 2 data in absence of parecoxib sodium
[18] = gel, 1% drug in 70% aqueous ethanol with 3% Klucel, 50 mg, non-occlusive
[19] = saturated solution in 70% aqueous ethanol, 250 μl, occlusive
[20] = Valdecoxib + parecoxib Na composition: saturated valdecoxib in 67% aqueous ethanol containing 5% parecoxib sodium

| SMILES | Skin flux [1] [μg/cm^2 · day] | Enhancement factor [2, 5] | Skin flux [2, 6] [μg/cm^2 · day] | Skin flux [2, 7] [μg/cm^2 · day] | Skin flux [2, 8] [μg/cm^2 · day] | Skin flux [2, 9] | Skin flux [2, 10] | Skin flux [2, 11] [μg/cm^2 · day] | Skin flux [2, 12] [μg/cm^2 · day] | Normalized skin flux [2, 13] [μg/cm^2 · day] | Skin flux [2, 14] | Skin flux [2, 15] [μg/cm^2 · day] | Skin flux [2, 16] | Enhancement factor [2, 17] | Concentration ([3]; saturated aqueous solution) [mg/mL] | Concentration [3, 13] [mg/mL] | Drug in dermis [4, 18] | Drug in epidermis [4, 18] [µg] | Drug in dermis [4, 19] [µg] | Drug in epidermis [4, 19] [µg] | further results |
| --- | --- | --- | --- | --- | --- | --- | --- | --- | --- | --- | --- | --- | --- | --- | --- | --- | --- | --- | --- | --- | --- |
| Cc1ccc(-c2cc(C(F)(F)F)nn2-c2ccc(S(N)(=O)=O)cc2)cc1 [celecoxib, 4-[5-(4-methylphenyl)-3-(trifluoromethyl)-1H-pyrazol-1-yl]benzenesulfonamide] | 23.71 ± 4.42 | 1.4 | 183 ± 153 | 3.82 ± 3.36 | 4.27 ± 0.84 | 21.7 ± 4.6 μg/cm^2 · day | 15.7 μg/cm^2 · day and 15.7 ± 3.83 μg/cm^2 · day | 73.7 ± 11.8 | 31.9 ± 9.6 | 34.9 | No skin permeation | 5.62 ± 1.49 | No skin permeation | 11.5 | 0.0005 | 15.2 | 1.22 ± 0.51 µg | 2.36 ± 1.06 | 2.50 ± 1.53 | 3.92 ± 0.79 | Celecoxib permeation ([2]; saturated celecoxib solution in 70% ethanol, amount in receptor fluid after 15 hours): 1.406 ± 0.086 μg/cm^2; Skin flux ([2]; saturated solution in 70% aqueous ethanol, 250 μl, occlusive, 24 hour period, 32° C., listed as Celecoxib): 15.7 ± 3.83 μg/cm^2 · day; Skin flux ([2]; saturated solution in 70% aqueous ethanol, skin donor 1): 15.7 ± 3.8 μg/cm^2 · day; Skin flux ([2]; saturated solution in 70% aqueous ethanol, skin donor 6): 50.4 ± 12.7 μg/cm^2 · day; Skin flux ([2]; saturated solution in PEG-400, 250 μl, 24 hour period, listed as Celecoxib): ud; Skin flux ([2]; saturated solution in propylene glycol (PG), 250 μl, 24 hour period, listed as Celecoxib): ud; Concentration ([3]; saturated in 67% aqueous ethanol containing 5% parecoxib sodium): 15.9 mg/mL; Concentration ([3]; saturated solution in PEG-400): 297 mg/mL; Concentration ([3]; saturated solution in ethanol (EtOH)): 91.4 mg/mL; Concentration ([3]; saturated solution in propylene glycol (PG)): 33.3 mg/mL |
| CCC(=O)NS(=O)(=O)c1ccc(-c2c(-c3ccccc3)noc2C)cc1 [parecoxib Na] | – | 4.8 | – | – | – | 1210 ± 58.0^ μg/cm^2 · day | 254 ± 164 μg/cm^2 · day | – | – | 120.0 | – | – | – | – | – | 386 | – | – | – | – | – |
| CCC(=O)NS(=O)(=O)c1ccc(-c2c(-c3ccccc3)noc2C)cc1 [parecoxib, N-[[4-(5-methyl-3-phenylisoxazol-4-yl)phenyl]sulfonyl]propanamide] | 47.16 ± 3.70 | – | 74.7 ± 14.7 | – | 8.62 ± 1.94 | – | – | – | – | – | – | – | – | – | 0.0508 | – | – | – | – | – | inhibitory activity against COX-1 (COX-1): weak in vitro inhibitory activity; Skin flux [2, 20]: 64.1 ± 11.3 μg/cm^2 · day; inhibitory activity against COX-2 (COX-2): weak in vitro inhibitory activity |
| Cc1onc(-c2ccccc2)c1-c1ccc(S(N)(=O)=O)cc1 [valdecoxib, 4-[5-methyl-3-phenylisoxazol-4-yl]benzenesulfonamide] | 42.12 ± 7.82 | 25 | – | 11.3 ± 6.48 | 7.94 ± 0.89 | 323 ± 21 μg/cm^2 · day | 12.8 μg/cm^2 · day and 12.8 ± 4.96 μg/cm^2 · day | 91.9 ± 15.0 | 58.3 ± 11.0 | 53.4 | No skin permeation | 1.44 ± 0.54 | No skin permeation | 8.4 | – | – | ud | 1.81 ± 1.87 | 0.543 ± 0.525 | 9.27 ± 3.84 | inhibitory activity against COX-1 (COX-1): weak inhibitor; Skin flux [2, 20]: 108 ± 16.7 μg/cm^2 · day; Skin flux ([2]; saturated solution in 70% aqueous ethanol, 250 μl, occlusive, 24 hour period, 32° C., listed as Valdecoxib): 12.8 ± 4.96 μg/cm^2 · day; Skin flux ([2]; saturated solution in 70% aqueous ethanol, skin donor 2): 12.8 ± 5.0 μg/cm^2 · day; Skin flux ([2]; saturated solution in PEG-400, 250 μl, 24 hour period, listed as Valdecoxib): ud; Skin flux ([2]; saturated solution in propylene glycol (PG), 250 μl, 24 hour period, listed as Valdecoxib): ud |
